Assays:
Conditions in all cases: 48 h
[1] = test system: NOMO1; assay: AUC of viability dose-response curve (% viability x log10 dose units); higher = less sensitive
Procedure, shortened: (§1)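 Leukemia cells adapted to each medium were seeded in 1536-well plates (500 or 1000 cells/well) and given library compounds in DMSO for 48 h at 37°C. The 11 threefold doses spanned 47 μM to 0.79 nM, and CellTiter-Glo One luminescence was normalised per plate to DMSO and cell-free wells before four-parameter log-logistic fitting on log10 dose. Area under the curve was integrated with the trapezoidal rule, scaling curves above full viability and removing curves that failed quality control.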

[2] = test system: SEM cells; assay: as above
Procedure, shortened: as §1

[3] = test system: P12-Ichikawa; assay: as above
Procedure, shortened: as §1

[4] = test system: NOMO1; assay: cell viability relative to DMSO control; higher = less cytotoxic
Procedure, shortened: (§2)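 Library compounds in DMSO were pin-dosed into 1536-well plates (5 μl) holding NOMO1 or SEM (500 cells/well) or P12-Ichikawa (1000 cells/well) leukemia cells, across an 11-point threefold series of 47 μM to 0.79 nM. Each cell line had been adapted for at least four passages in each medium. CellTiter-Glo One luminescence was read after 48 h at 37°C. Viability is the per-plate percentage relative to DMSO wells, with cell-free wells as background.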

[5] = test system: SEM cells; assay: as above
Procedure, shortened: as §2

[6] = test system: P12-Ichikawa; assay: as above
Procedure, shortened: as §2

COC(=O)N1CCN(Cc2cccc(NC(=O)Nc3ccc(C)nc3)c2F)CC1
AUC of viability dose-response curve
Conditions | [1] | [2] | [3]
HPLM + 10% dialyzed FBS | 418 | 470 | 458
RPMI 5 mM glucose + 10% FBS | 434 | 464 | 434
RPMI 5 mM glucose + 10% dialyzed FBS | 434 | 448 | 408

cell viability [%]
Conditions | [4] | [5] | [6]
HPLM + 10% dialyzed FBS, 0.000781 µM | 115 | 96.1 | 94.8
HPLM + 10% dialyzed FBS, 0.00234 µM | 111 | 95.2 | 102
HPLM + 10% dialyzed FBS, 0.00702 µM | 111 | 105 | 103
HPLM + 10% dialyzed FBS, 0.0211 µM | 104 | 108 | 98.7
HPLM + 10% dialyzed FBS, 0.0632 µM | 104 | 99.2 | 102
HPLM + 10% dialyzed FBS, 0.19 µM | 100 | 105 | 94.9
HPLM + 10% dialyzed FBS, 0.569 µM | 100 | 86.7 | 97.7
HPLM + 10% dialyzed FBS, 1.71 µM | 101 | 100 | 94.1
HPLM + 10% dialyzed FBS, 5.12 µM | 102 | 100 | 91
HPLM + 10% dialyzed FBS, 15.4 µM | 82.4 | 102 | 88.7
HPLM + 10% dialyzed FBS, 46.1 µM | 81.9 | 73.7 | 84.8
RPMI 5 mM glucose + 10% FBS, 0.000781 µM | 98.5 | 122 | 96.6
RPMI 5 mM glucose + 10% FBS, 0.00234 µM | 98.8 | 120 | 98.7
RPMI 5 mM glucose + 10% FBS, 0.00702 µM | 95.2 | 120 | 95.8
RPMI 5 mM glucose + 10% FBS, 0.0211 µM | 98.8 | 116 | 104
RPMI 5 mM glucose + 10% FBS, 0.0632 µM | 95.7 | 119 | 98.7
RPMI 5 mM glucose + 10% FBS, 0.19 µM | 85.7 | 124 | 95.2
RPMI 5 mM glucose + 10% FBS, 0.569 µM | 103 | 124 | 82.2
RPMI 5 mM glucose + 10% FBS, 1.71 µM | 84.2 | 114 | 81.4
RPMI 5 mM glucose + 10% FBS, 5.12 µM | 84.1 | 116 | 85.9
RPMI 5 mM glucose + 10% FBS, 15.4 µM | 77.2 | 108 | 87.6
RPMI 5 mM glucose + 10% FBS, 46.1 µM | 77.6 | 96 | 74.4
RPMI 5 mM glucose + 10% dialyzed FBS, 0.000781 µM | 91.9 | 90.3 | 92.8
RPMI 5 mM glucose + 10% dialyzed FBS, 0.00234 µM | 92.4 | 107 | 96
RPMI 5 mM glucose + 10% dialyzed FBS, 0.00702 µM | 105 | 109 | 87.1
RPMI 5 mM glucose + 10% dialyzed FBS, 0.0211 µM | 104 | 106 | 93.7
RPMI 5 mM glucose + 10% dialyzed FBS, 0.0632 µM | 99.6 | 94.7 | 89.7
RPMI 5 mM glucose + 10% dialyzed FBS, 0.19 µM | 93.5 | 112 | 84.5
RPMI 5 mM glucose + 10% dialyzed FBS, 0.569 µM | 85.6 | 94.6 | 84.5
RPMI 5 mM glucose + 10% dialyzed FBS, 1.71 µM | 84 | 90.1 | 78.2
RPMI 5 mM glucose + 10% dialyzed FBS, 5.12 µM | 78.1 | 90.7 | 81.2
RPMI 5 mM glucose + 10% dialyzed FBS, 15.4 µM | 83.7 | 86.4 | 81.3
RPMI 5 mM glucose + 10% dialyzed FBS, 46.1 µM | 81.5 | 65.3 | 69

From the supplement of paper PMC11451515
